Measurements from patent US9718774B2, “Indole carboxamide derivatives as P2X7 receptor antagonist” (ACTELION PHARMACEUTICALS LTD, priority 2012, dated 2017).
Where a name gives a salt, the structure may show the parent alone.

Target: T1, human recombinant P2X7 receptor (Homo sapiens, UniProt Q99572)
T1 construct: expressed in transfected cells
T1 sequence (Q99572 1-595): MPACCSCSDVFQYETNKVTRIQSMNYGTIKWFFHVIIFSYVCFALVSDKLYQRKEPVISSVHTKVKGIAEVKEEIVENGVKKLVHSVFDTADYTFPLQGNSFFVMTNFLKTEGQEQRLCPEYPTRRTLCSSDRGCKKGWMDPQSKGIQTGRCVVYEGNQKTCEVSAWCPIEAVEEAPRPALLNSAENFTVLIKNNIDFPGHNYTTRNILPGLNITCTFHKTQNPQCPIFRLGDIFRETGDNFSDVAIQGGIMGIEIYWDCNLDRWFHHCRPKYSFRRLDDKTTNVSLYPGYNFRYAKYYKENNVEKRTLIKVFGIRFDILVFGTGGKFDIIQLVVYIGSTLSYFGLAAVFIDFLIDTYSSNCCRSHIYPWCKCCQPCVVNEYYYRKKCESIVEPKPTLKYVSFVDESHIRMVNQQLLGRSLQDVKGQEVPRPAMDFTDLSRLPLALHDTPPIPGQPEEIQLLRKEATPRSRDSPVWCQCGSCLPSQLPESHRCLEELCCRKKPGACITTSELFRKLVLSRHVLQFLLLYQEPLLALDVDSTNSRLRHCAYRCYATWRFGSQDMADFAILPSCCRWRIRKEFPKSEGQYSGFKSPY
Experiment: YO-PRO assay: P2X7 receptor antagonistic activity in HEK cells stably expressing P2X7
Type: cell-based
Conditions: antagonistic activity with respect to the P2X7 receptor, read-out: IC50
Experimental: The P2X7 receptor antagonistic activity of the compounds of formula (I) is determined in accordance with the following experimental method.
Cell Line Generation and YO-PRO Assay
Cell line generation was performed in general according to established molecular cloning protocols. Specifically, RNA was extracted from human whole blood using the Qiagen RNeasy kit (Qiagen, CH) according to the manufacturer's instructions. Subsequently cDNA was made (Superscript II, Invitrogen AG, CH) and the human P2X7 gene (genbank ref. BC011913) was amplified with the following primers: […] and […]. The amplified sequence was subsequently ligated into a pcDNA3.1 (+) NotI, NheI digested plasmid. Human embryonic kidney (HEK) cells (ATCC CRL—1573, Manassas, Va., USA) were transfected with the pcDNA3.1 (+).hP2X7 plasmid using lipofectamine 2000 (Invitrogen AG, CH) according to the manufacturer's instructions. Following a 24 h exposure to DNA, cells were trypsinized and re-seeded at low density in the presence of 250 μg Geneticin. Geneticin resistant cells were then selected during two consecutive rounds of cloning by serial limiting dilution with visual inspection. Individual clones were screened for P2X7 expression by applying ATP and recording the resultant uptake of YO-PRO1. Specific cell clones were chosen based on RNA and protein expression. HEK cells stably expressing P2X7 were used to screen drugs using the YO-PRO1 assay. Cells were grown to confluency in adherent culture at 37° C. in a humidified 5% CO2 incubator (split 1/5 every 3-4 days with DMEM, 10% FCS, 1% Penicillin/Streptomycin, 250 μg/ml Geneticin). Adherent cells were detached by incubation with Trypsine (1 ml per 165 cm^2 dish) for 2 minutes, then washed off with 10 ml PBS (without Mg^2+ and Ca^2+), and resuspended in DMEM, 10% FCS, 1% Penicillin/Streptomycin, no Geneticin. 10′000 cells per well (48 hours before the assay) or 25′000 cells per well (Vi-cell XR (Beckman Coulter) (24 hours before the assay) in 50 μl full medium were seeded on 384-well black-wall, clear bottom plates, that were coated before with 10 μl per well Poly-L-Lysine, incubated for 30-60 minutes at 37° C. and washed once with PBS. Medium was removed from cells and 50 μl of assay buffer containing 0.5 μM YO-PRO-1 was added into the wells. Solutions of antagonist compounds were prepared by serial dilutions of a 10 mM DMSO solution of the antagonist into PBS using a BioMek (Beckman Coulter). Each concentration was performed in duplicate. For IC50 measurements 10 concentration points were measured (10 μM being the highest concentration followed by 9 serial dilution steps 1/3). The cells were incubated with the antagonists of the present invention together with ATP at a final concentration of 250 μM for 90 minutes. During this time period, four time points were taken. Each time point comprised the average of several measurements made within a few seconds. Fluorescence was measured in the FLIPR tetra (Molecular Devices) using the filters appropriate for YO-PRO-1 fluorescence (excitation 485/20, emission 530/25). The FLIPR tetra was equipped with Molecular Devices Screen Works system control software to define and run experimental protocols. […] For IC50 measurements the maximum intensity is plotted against the concentration of compound to determine IC50 values.

Row | Compound | IC50 [nM]
1 | Cc1ncc(C(CNC(=O)c2ccc3[nH]ccc3c2Cl)N2CCOCC2)cn1 (single isomer, unassigned) [Example 3, 4-Chloro-1H-indole-5-carboxylic acid [2-(2-methyl-pyrimidin-5-yl)-2-morpholin-4-yl-ethyl]-amide] | 7.9
2 | O=C(NCC(c1ccc(F)c(F)c1)N1CCOCC1)c1ccc2[nH]ccc2c1Cl (racemic) [Example 50, rac-4-Chloro-1H-indole-5-carboxylic acid [2-(3,4-difluoro-phenyl)-2-morpholin-4-yl-ethyl]-amide] | 13
3 | O=C(NCC(c1ccc(F)cc1F)N1CCCCC1)c1ccc2[nH]ccc2c1Cl (racemic) [Example 31, rac-4-Chloro-1H-indole-5-carboxylic acid [2-(2,4-difluoro-phenyl)-2-piperidin-1-yl-ethyl]-amide] | 251
4 | Cc1ncc(C(CNC(=O)c2cc(C)c3[nH]ccc3c2C(F)(F)F)N2CCOCC2)cn1 (racemic) [Example 103, rac-7-Methyl-4-trifluoromethyl-1H-indole-5-carboxylic acid [2-(2-methyl-pyrimidin-5-yl)-2-morpholin-4-yl-ethyl]-amide] | 26
5 | Cc1ncc(C(CNC(=O)c2ccc3[nH]ccc3c2Cl)C2CCOCC2)cn1 (racemic) [Example 51, rac-4-Chloro-1H-indole-5-carboxylic acid [2-(2-methyl-pyrimidin-5-yl)-2-(tetrahydro-pyran-4-yl)-ethyl]-amide] | 16
6 | Cc1ncc(C(CNC(=O)c2ccc3[nH]ccc3c2Cl)OC2CCCCC2)cn1 (racemic) [Example 69, rac-4-Chloro-1H-indole-5-carboxylic acid [2-cyclohexyloxy-2-(2-methyl-pyrimidin-5-yl)-ethyl]-amide] | 61
7 | O=C(NCC(c1cnc(C(F)(F)F)nc1)N1CCC(F)(F)CC1)c1ccc2[nH]ccc2c1Cl (racemic) [Example 8, rac-4-Chloro-1H-indole-5-carboxylic acid [2-(4,4-difluoro-piperidin-1-yl)-2-(2-trifluoromethyl-pyrimidin-5-yl)-ethyl]-amide] | 12
8 | Cn1cc(C(CNC(=O)c2ccc3[nH]ccc3c2Cl)N2CCCCC2)cn1 (racemic) [Example 29, rac-4-Chloro-1H-indole-5-carboxylic acid [2-(1-methyl-1H-pyrazol-4-yl)-2-piperidin-1-yl-ethyl]-amide] | 161
9 | Cc1ncc(C(CNC(=O)c2ccc3[nH]ccc3c2Cl)N(C)C)cn1 (racemic) [Example 12, rac-4-Chloro-1H-indole-5-carboxylic acid [2-dimethylamino-2-(2-methyl-pyrimidin-5-yl)-ethyl]-amide] | 2300
10 | CCc1c(C(=O)NCC(c2cnc(C)nc2)N2CCOCC2)ccc2[nH]ccc12 (racemic) [Example 101, rac-4-Ethyl-1H-indole-5-carboxylic acid [2-(2-methyl-pyrimidin-5-yl)-2-morpholin-4-yl-ethyl]-amide] | 30
11 | O=C(NCC(c1ccc(C(F)(F)F)nc1)N1CCOCC1)c1ccc2[nH]ccc2c1Cl (racemic) [Example 10, rac-4-Chloro-1H-indole-5-carboxylic acid [2-morpholin-4-yl-2-(6-trifluoromethyl-pyridin-3-yl)-ethyl]-amide] | 5.1
12 | O=C(NCC(c1cccnc1)C1CCNCC1)c1ccc2[nH]ccc2c1Cl (racemic) [Example 20, rac-4-Chloro-1H-indole-5-carboxylic acid (2-piperidin-4-yl-2-pyridin-3-yl-ethyl)-amide dihydrochloride] | 447
13 | O=C(NCC(c1ccc(C(F)(F)F)cc1)N1CCOCC1)c1ccc2[nH]ccc2c1Cl (racemic) [Example 49, rac-4-Chloro-1H-indole-5-carboxylic acid [2-morpholin-4-yl-2-(4-trifluoromethyl-phenyl)-ethyl]-amide] | 34
14 | Cc1ncc(C(CNC(=O)c2ccc3[nH]ccc3c2Cl)N2CCCC2)cn1 (racemic) [Example 14, rac-4-Chloro-1H-indole-5-carboxylic acid [2-(2-methyl-pyrimidin-5-yl)-2-pyrrolidin-1-yl-ethyl]-amide] | 286
15 | O=C(NCC(c1ccc(Cl)nc1)N1CCOCC1)c1ccc2[nH]ccc2c1Cl (racemic) [Example 24, rac-4-Chloro-1H-indole-5-carboxylic acid [2-(6-chloro-pyridin-3-yl)-2-morpholin-4-yl-ethyl]-amide] | 4.7
16 | Cc1ncc(C(CNC(=O)c2ccc3[nH]ccc3c2Cl)N2CC(C)OC(C)C2)cn1 (single isomer, unassigned) [Example 41, 4-Chloro-1H-indole-5-carboxylic acid [2-(2,6-dimethyl-morpholin-4-yl)-2-(2-methyl-pyrimidin-5-yl)-ethyl]-amide] | 651
17 | O=C(NCC(c1cccc(F)c1)N1CCCCC1)c1ccc2[nH]ccc2c1Cl (racemic) [Example 43, rac-4-Chloro-1H-indole-5-carboxylic acid [2-(3-fluoro-phenyl)-2-piperidin-1-yl-ethyl]-amide] | 163
18 | Cc1cnc(C(CNC(=O)c2ccc3[nH]ccc3c2Cl)N2CCCCC2)cn1 (racemic) [Example 60, rac-4-Chloro-1H-indole-5-carboxylic acid [2-(5-methyl-pyrazin-2-yl)-2-piperidin-1-yl-ethyl]-amide] | 232
19 | COc1ccc(C(CNC(=O)c2ccc3[nH]ccc3c2Cl)N2CCOCC2)cc1 (racemic) [Example 59, rac-4-Chloro-1H-indole-5-carboxylic acid [2-(4-methoxy-phenyl)-2-morpholin-4-yl-ethyl]-amide] | 55
20 | O=C(NCC(c1ccc(Cl)cc1)N1CCOCC1)c1ccc2[nH]ccc2c1Cl (racemic) [Example 38, rac-4-Chloro-1H-indole-5-carboxylic acid [2-(4-chloro-phenyl)-2-morpholin-4-yl-ethyl]-amide] | 15
21 | Cc1ncc(C(CNC(=O)c2ccc3[nH]ccc3c2Cl)N2CCS(=O)(=O)CC2)cn1 (racemic) [Example 92, rac-4-Chloro-1H-indole-5-carboxylic acid [2-(1,1-dioxo-thiomorpholin-4-yl)-2-(2-methyl-pyrimidin-5-yl)-ethyl]-amide] | 98
22 | Cc1ncc(C(CNC(=O)c2cc(C)c3[nH]ccc3c2C)N2CCOCC2)cn1 (racemic) [Example 104, rac-4,7-Dimethyl-1H-indole-5-carboxylic acid [2-(2-methyl-pyrimidin-5-yl)-2-morpholin-4-yl-ethyl]-amide] | 35
23 | Cc1ncc(C(CNC(=O)c2cc(C)c3[nH]ccc3c2Cl)N2CCOCC2)cn1 (single isomer, unassigned) [Example 97, 4-Chloro-7-methyl-1H-indole-5-carboxylic acid [2-(2-methyl-pyrimidin-5-yl)-2-morpholin-4-yl-ethyl]-amide] | 10
24 | Cc1ncc(C(CNC(=O)c2c(Cl)cc3[nH]ccc3c2Cl)N2CCOCC2)cn1 (racemic) [Example 94, rac-4,6-Dichloro-1H-indole-5-carboxylic acid [2-(2-methyl-pyrimidin-5-yl)-2-morpholin-4-yl-ethyl]-amide] | 211
